Results: ChEMBL document CHEMBL4311967, “Continued exploration and tail approach synthesis of benzenesulfonamides containing triazole and dual triazole moieties as carbonic anhydrase I, II, IV and IX inhibitors” (Eur J Med Chem, 2019)

target: Carbonic anhydrase 9 (Homo sapiens, UniProt Q16790); assay: Inhibition of human carbonic anhydrase 9 assessed as reduction in CO2 hydration incubated for 1 hr by phenol red staining-based stopped flow assay

SMILES | Ki [nM]
Cc1c(-c2n[nH]c(=S)[nH]2)nnn1-c1ccc(S(N)(=O)=O)cc1 | 1240
Cc1c(-c2nnc(SCC(=O)c3ccc(Br)cc3)[nH]2)nnn1-c1ccc(S(N)(=O)=O)cc1 | 2830
Cc1c(-c2nnc(SCC(=O)c3ccc(F)cc3)[nH]2)nnn1-c1ccc(S(N)(=O)=O)cc1 | 3020
Cc1c(C(=O)NNC(N)=S)nnn1-c1ccc(S(N)(=O)=O)cc1 | 2970
Cc1c(-c2nnc(SCC(=O)c3cccc([N+](=O)[O-])c3)[nH]2)nnn1-c1ccc(S(N)(=O)=O)cc1 | 2430
Cc1c(-c2nnc(SCC(=O)c3ccccc3)[nH]2)nnn1-c1ccc(S(N)(=O)=O)cc1 | 3200
Cc1ccc(C(=O)CSc2nnc(-c3nnn(-c4ccc(S(N)(=O)=O)cc4)c3C)[nH]2)cc1 | 3070
Cc1c(-c2nnc(SCC(=O)c3cccc(Br)c3)[nH]2)nnn1-c1ccc(S(N)(=O)=O)cc1 | 1470
Cc1c(-c2nnc(SCC(=O)c3ccc(Cl)cc3)[nH]2)nnn1-c1ccc(S(N)(=O)=O)cc1 | 3190
Cc1c(-c2nnc(SCC(=O)c3ccc([N+](=O)[O-])cc3)[nH]2)nnn1-c1ccc(S(N)(=O)=O)cc1 | 3060

These reach a lower Ki. Values come first.

Ki [nM] | SMILES
734 | NS(=O)(=O)c1ccc(-n2nnc(-c3nnc(SCC(=O)c4ccc(-c5ccccc5)cc4)[nH]3)c2-c2ccccc2)cc1
477 | NS(=O)(=O)c1ccc(-n2nnc(-c3nnc(SCC(=O)c4ccc(Cl)cc4)[nH]3)c2-c2ccccc2)cc1
294 | Cc1ccc(C(=O)CSc2nnc(-c3nnn(-c4ccc(S(N)(=O)=O)cc4)c3-c3ccccc3)[nH]2)cc1
278 | NS(=O)(=O)c1ccc(-n2nnc(-c3nnc(SCC(=O)c4cccc(Br)c4)[nH]3)c2-c2ccccc2)cc1
226 | Cc1c(-c2nnc(SCC(=O)c3ccc(-c4ccccc4)cc3)[nH]2)nnn1-c1ccc(S(N)(=O)=O)cc1
204 | NS(=O)(=O)c1ccc(-n2nnc(-c3nnc(SCC(=O)c4ccc([N+](=O)[O-])cc4)[nH]3)c2-c2ccccc2)cc1
192 | NS(=O)(=O)c1ccc(-n2nnc(-c3nnc(SCC(=O)c4cccc([N+](=O)[O-])c4)[nH]3)c2-c2ccccc2)cc1
177 | NS(=O)(=O)c1ccc(-n2nnc(-c3nnc(SCC(=O)c4ccc(Br)cc4)[nH]3)c2-c2ccccc2)cc1
177 | NS(=O)(=O)c1ccc(-n2nnc(-c3nnc(SCC(=O)c4ccc(F)cc4)[nH]3)c2-c2ccccc2)cc1
135 | NS(=O)(=O)c1ccc(-n2nnc(-c3nnc(SCC(=O)c4ccccc4)[nH]3)c2-c2ccccc2)cc1
111 | NC(=S)NNC(=O)c1nnn(-c2ccc(S(N)(=O)=O)cc2)c1-c1ccccc1
51 | NS(=O)(=O)c1ccc(-n2nnc(-c3n[nH]c(=S)[nH]3)c2-c2ccccc2)cc1
